# Data from patent US10829778B2, “Plants having increased tolerance to herbicides” (BASF SE, priority 2013, dated 2020).
# Key:
# [1] = system: Kordia HPPD; experiment: HPPD activity assay, wildtype enzyme; format: biochemical; settings: Table 12, normalized to Arabidopsis HPPD
# Description: (§1) HPPD produces homogentisic acid and CO2 from 4-hydroxyphenylpyruvate (4-HPP) and O2. The activity assay for HPPD is based on the analysis of homogentisic acid by reversed phase HPLC.
# (§2) The assay mixture can contain 150 mM potassium phosphate buffer pH 7.0, 50 mM L-ascorbic acid, 100 μM Catalase (Sigma-Aldrich), 1 μM FeSO4 and 0.2 units of purified HPPD enzyme in a total volume of 505 μl. 1 unit is defined as the amount of enzyme that is required to produce 1 nmol of HGA per minute at 20° C.
# (§3) After a preincubation of 30 min the reaction is started by adding 4-HPP to a final concentration of 0.05 mM. The reaction is allowed to proceed for 45 min at room temperature. The reaction is stopped by the addition of 50 μl of 4.5 M phosphoric acid. The sample is filtered using a […] pore size PVDF filtration device.
# (§4) 5 μl of the cleared sample is analyzed on an UPLC HSS T3 column (particle size 1.8 μm, dimensions 2.1×50 mm; Waters) by isocratic elution using 90% 20 mM NaH2PO4 pH 2.2, 10% methanol (v/v).
# (§5) HGA is detected electrochemically at 750 mV (mode: DC; polarity: positive) and quantified by integrating peak areas (Empower software; Waters).
# (§6) Inhibitors are dissolved in DMSO (dimethylsulfoxide) to a concentration of 0.5 mM. From this stock solution serial five-fold dilutions are prepared in DMSO, which are used in the assay. The respective inhibitor solution accounts for 1% of the assay volume. Thus, final inhibitor concentrations range from 5 μM to 320 μM, respectively. Activities are normalized by setting the uninhibited enzyme activity to 100%. IC50 values are calculated using non-linear regression.
# (§7) Using methods which are described in the above examples or well known in the art, purified, recombinant wildtype HPPD enzymes are characterized with respect to their kinetic properties and sensitivity towards HPPD inhibiting herbicides. Apparent michaelis constants (Km) and maximal reaction velocities (Vmax) are calculated by non-linear regression with the software GraphPad Prism 5 (GraphPad Software, La Jolla, USA) using a substrate inhibition model. Apparent kcat values are calculated from Vmax assuming 100% purity of the enzyme preparation. Weighted means (by standard error) of Km and IC50 values are calculated from at least three independent experiments. The Cheng-Prusoff equation for competitive inhibition (Cheng, Y. C.; Prusoff, W. H. Biochem Pharmacol 1973, 22, 3099-3108) is used to calculate dissociation constants (Ki).
# (§8) Field performance of the HPPD enzyme, which is used as a herbicide tolerance trait may depend not only on its lack of sensitivity towards HPPD inhibiting herbicides but also on its activity. To assess the potential performance of a herbicide tolerance trait a tolerance index (TI) is calculated using the following formula: […]
# [2] = system: Lolium HPPD; experiment: HPPD activity assay, wildtype enzyme; format: biochemical; settings: Table 12, normalized to Arabidopsis HPPD
# Description: as §1, §2, §3, §4, §5, §6, §7, §8
# [3] = system: Rhodococcus HPPD (Seq ID 44); experiment: HPPD activity assay, wildtype enzyme; format: biochemical; settings: Table 12, normalized to Arabidopsis HPPD; Rhodococcus (Seq ID 44)
# Description: as §1, §2, §3, §4, §5, §6, §7, §8
# [4] = system: Rhodococcus HPPD (Seq ID 46); experiment: HPPD activity assay, wildtype enzyme; format: biochemical; settings: Table 12, normalized to Arabidopsis HPPD; Rhodococcus (Seq ID 46)
# Description: as §1, §2, §3, §4, §5, §6, §7, §8
# [5] = target: T1, Arabidopsis HPPD (SEQ ID: 53) F381I (Arabidopsis thaliana, UniProt P93836, F381I); experiment: HPPD activity assay, mutant enzyme; format: biochemical; settings: Table 15, normalized to Arabidopsis wild-type
# T1 construct: PCR-based site directed mutagenesis of pEXP5-NT/TOPO®-AtHPPD; His6 (N); made in house; host or cells: E. coli BL21 (DE3)
# T1 sequence (P93836 whole entry F381I): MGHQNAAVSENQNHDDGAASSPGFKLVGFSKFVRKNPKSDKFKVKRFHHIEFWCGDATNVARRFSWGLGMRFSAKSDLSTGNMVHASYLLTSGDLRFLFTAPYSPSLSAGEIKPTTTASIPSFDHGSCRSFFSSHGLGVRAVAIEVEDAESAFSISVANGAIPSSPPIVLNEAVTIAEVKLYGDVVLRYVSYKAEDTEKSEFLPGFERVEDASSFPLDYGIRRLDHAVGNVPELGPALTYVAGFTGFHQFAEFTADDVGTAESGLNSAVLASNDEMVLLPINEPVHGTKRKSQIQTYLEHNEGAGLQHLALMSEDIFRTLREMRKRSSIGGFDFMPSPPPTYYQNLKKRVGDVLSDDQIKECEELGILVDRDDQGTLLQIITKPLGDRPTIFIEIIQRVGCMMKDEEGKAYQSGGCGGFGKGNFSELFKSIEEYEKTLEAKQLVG
# Description: as §1, §2, §3, §4, §5
# as §6, with “Thus, final inhibitor concentrations range from 5 μM to 320 μM, respectively.” left out
# (§9) Purified, mutant HPPD enzymes are obtained by the methods described above. Dose response and kinetic measurements are carried out using the described HPPD activity assay. Apparent michaelis constants (Km) and maximal reaction velocities (Vmax) are calculated by non-linear regression with the software GraphPad Prism 5 (GraphPad Software, La Jolla, USA) using a substrate inhibition model. […] Weighted means (by standard error) of Km and IC50 values are calculated from at least three independent experiments.
# as §8, with “of the optimized HPPD enzyme,” for “of the HPPD enzyme,”
# (§10) Easy comparison and ranking of each trait is enabled by normalizing tolerance indexes on Arabidopsis or Hordeum wild-type HPPD.
# [6] = target: T2, Arabidopsis HPPD (SEQ ID: 53) M335H, P336G (Arabidopsis thaliana, UniProt P93836, M335H/P336G); experiment: HPPD activity assay, mutant enzyme; format: biochemical; settings: Table 15, normalized to Arabidopsis wild-type
# T2 construct: PCR-based site directed mutagenesis of pEXP5-NT/TOPO®-AtHPPD; His6 (N); made in house; host or cells: E. coli BL21 (DE3)
# T2 sequence (P93836 whole entry M335H/P336G): as the sequence (P93836 whole entry F381I) above, with M335H, P336G, I381F counted along it
# Description: as §1, §2, §3, §4, §5
# as §6, with “Thus, final inhibitor concentrations range from 5 μM to 320 μM, respectively.” left out
# as §9
# as §8, with “of the optimized HPPD enzyme,” for “of the HPPD enzyme,”
# as §10
# [7] = target: T3, Hordeum HPPD (SEQ ID: 2) F404L (Hordeum vulgare, UniProt O48604, A164G/F404L/R146V/R147D/R148G); experiment: HPPD activity assay, mutant enzyme; format: biochemical; settings: Table 16, normalized to Hordeum wild-type
# T3 construct: His tag (N); made in house; host or cells: E. coli BL21 (DE3)
# T3 sequence (O48604 whole entry R146V/R147D/R148G/A164G/F404L): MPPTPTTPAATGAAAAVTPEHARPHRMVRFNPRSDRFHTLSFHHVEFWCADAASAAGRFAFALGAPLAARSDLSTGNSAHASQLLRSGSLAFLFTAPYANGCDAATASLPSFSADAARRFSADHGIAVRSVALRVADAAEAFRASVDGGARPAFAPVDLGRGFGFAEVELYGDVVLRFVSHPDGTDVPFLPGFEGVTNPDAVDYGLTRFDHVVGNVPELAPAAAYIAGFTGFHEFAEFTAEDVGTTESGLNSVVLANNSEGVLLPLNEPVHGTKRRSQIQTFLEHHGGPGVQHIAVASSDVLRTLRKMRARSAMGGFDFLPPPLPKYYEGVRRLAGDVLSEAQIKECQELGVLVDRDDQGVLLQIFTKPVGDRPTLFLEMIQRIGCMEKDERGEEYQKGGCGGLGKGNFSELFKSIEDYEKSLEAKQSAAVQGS
# Description: as §1, §2, §3, §4, §5
# as §6, with “Thus, final inhibitor concentrations range from 5 μM to 320 μM, respectively.” left out
# as §9
# as §8, with “of the optimized HPPD enzyme,” for “of the HPPD enzyme,”
# as §10
# [8] = target: T4, HvHPPD L320H (SEQ ID: 2) (Hordeum vulgare, UniProt O48604, A164G/L320H/R146V/R147D/R148G); experiment: HPPD activity assay, mutant enzyme; format: biochemical; settings: Table 16, normalized to Hordeum wild-type
# T4 construct: His tag (N); made in house; host or cells: E. coli BL21 (DE3)
# T4 sequence (O48604 whole entry R146V/R147D/R148G/A164G/L320H): as the sequence (O48604 whole entry R146V/R147D/R148G/A164G/F404L) above, with L320H, L404F counted along it
# Description: as §1, §2, §3, §4, §5
# as §6, with “Thus, final inhibitor concentrations range from 5 μM to 320 μM, respectively.” left out
# as §9
# as §8, with “of the optimized HPPD enzyme,” for “of the HPPD enzyme,”
# as §10
# [9] = system: transgenic Arabidopsis plants expressing AtHPPD M335Y, P336A, E363Q; experiment: Greenhouse herbicide spray test, transgenic Arabidopsis plants (T2); format: in vivo, Arabidopsis thaliana; settings: two weeks after treatment
# Description: (§11) For post emergence treatment, the test plants are first grown to a height of 3 to 15 cm, depending on the plant habit, and only then treated with the herbicides. For this purpose, the test plants are either sown directly and grown in the same containers, or they are first grown separately and transplanted into the test containers a few days prior to treatment.
# (§12) Additionally, T1 and T2 transgenic Arabidopsis plants can be tested for improved tolerance to N-heterocyclyl-arylcarboxamides in a greenhouse studies. Herbicide injury scoring is done 2-3 weeks after treatment and is rated on a scale of 0 to 100%, 0% being no injury and 100% being complete death.
# [10] = system: transgenic Arabidopsis plants expressing HvHPPD L320H, P321A; experiment: as above; format: in vivo, Arabidopsis thaliana; settings: for Injury evaluation: P321A, two weeks after treatment
# Description: as §11, §12
smiles,measurement,setting,value
"Cc1nonc1NC(=O)c1ccc(S(C)(=O)=O)c(S(C)(=O)=O)c1C [Inhibitor 1, 2-methyl-N-(4-methyl-1,2,5-oxadiazol-3-yl)-3,4-bis(methylsulfonyl)benzamide]",Normalized tolerance index TI Inhibitor 1,[1],3.5
same,Normalized tolerance index TI Inhibitor 1,[2],1.7
same,Normalized tolerance index TI Inhibitor 1,[3],183.5
same,Normalized tolerance index TI Inhibitor 1,[4],12.4
same,Normalized tolerance index TI Inhibitor 1,[5],37
same,Normalized tolerance index TI Inhibitor 1,[6],3.6
same,Normalized tolerance index TI Inhibitor 1,[7],4.6
same,Normalized tolerance index TI Inhibitor 1,[8],4.4
same,Injury evaluation,[9]; 1.56 g/ha,12%
same,Injury evaluation,[9]; 3.125 g/ha,23%
same,Injury evaluation,[9]; 6.25 g/ha,58%
same,Injury evaluation,[9]; 12.5 g/ha,52%
same,increased tolerance versus wild-type plants,"[10]; P321A plants, highest dose applied",40 fold
same,Injury evaluation,[10]; 1.56 g/ha,0%
same,Injury evaluation,[10]; 3.125 g/ha,0%
same,Injury evaluation,[10]; 6.25 g/ha,2%
same,Injury evaluation,[10]; 12.5 g/ha,2.5%
